Patent publication US12187705B2, “Heteroaryl-triazole and heteroaryl-tetrazole compounds as pesticides” (Bayer Aktiengesellschaft, priority 2018, dated 2025)

Tests used:
Assay type in all cases: in vivo
Ctenocephalides felis [1] = experiment: Ctenocephalides felis oral test; details: Ctenocephalides felis, in Bos taurus, po, 48 h
Method in brief: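 About 20 adult unfed fleas fed through parafilm on cattle blood containing compound (DMSO concentrate diluted in blood); blood held at 37° C., fleas at room temperature. Mortality in % scored after 2 days (100% = all killed).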

Diabrotica balteata = Diabrotica balteata spray test; details: Diabrotica balteata, 168 h; 160 μg/well, wheat seeds, after 7 days; read-out: efficacy (seedlings grown)
Method in brief: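 Wheat seeds germinated 1 day on agar were sprayed with compound diluted in water with 1000 ppm emulsifier, then infested with 10-20 Diabrotica balteata larvae. Efficacy in % scored after 7 days: 100% = seedlings grown as untreated, uninfected control; 0% = no seedlings grown.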

Myzus persicae [2] = experiment: Myzus persicae oral test; details: 120 h
Method in brief: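 Feeding test: compound diluted in water was combined with IPL41 insect medium (33%+15% sugar) under a parafilm seal. A mixed population of green peach aphids fed through the membrane. Mortality (%) was scored after 5 days.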

Phaedon cochleariae = Phaedon cochleariae spray test; details: foliar, 168 h, Chinese cabbage leaf disks, after 7 days
Method: Phaedon cochleariae—Spray Test
(§1) To produce a suitable preparation of active compound, 1 part by weight of active compound is mixed with the stated amount of solvents and is diluted with water, containing an emulsifier concentration of 1000 ppm, to the desired concentration. Further test concentrations are prepared by dilution with emulsifier containing water.
Chinese cabbage (Brassica pekinensis) leaf disks are sprayed with a preparation of the active ingredient of the desired concentration. Once dry, the leaf disks are infested with mustard beetle larvae (Phaedon cochleariae).
After 7 days mortality in % is determined. 100% means all beetle larvae have been killed and 0% means none of the beetle larvae have been killed.

Spodoptera frugiperda = Spodoptera frugiperda spray test; details: in Zea mays, 168 h
Method in brief: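 Maize leaf sections sprayed with compound diluted in water with 1000 ppm emulsifier, then infested with larvae once dry. Mortality (%) scored after 7 days; 100% = all caterpillars killed.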

Nezara viridula = Nezara viridula spray test; details: in Hordeum vulgare, 96 h
Method in brief: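 Barley plants infested with stink bug larvae were sprayed with compound diluted in water containing 1000 ppm emulsifier. Mortality (%) was scored after 4 days, 100% meaning all bugs killed.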

Ctenocephalides felis [3] = experiment: Ctenocephalides felis in-vitro contact test adult cat flea; details: Ctenocephalides felis; 5 μg/cm^2 (=500 g/ha), after 48 hours; read-out: efficacy (fleas dead or moribund)
Method in brief: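 Compound in acetone was coated on glass tube walls, giving 5 μg/cm^2 at 900 ppm. 5-10 adult cat fleas were held at room temperature for 48 h, then heat-challenged at 45-50° C. Fleas immotile or uncoordinated were scored dead/moribund, expressed as % efficacy.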

Boophilus microplus = Boophilus microplus injection test; details: Rhipicephalus microplus, 168 h, 20 μg/animal, egg deposition after 7 days, read-out: efficacy (infertile eggs)
Method in brief: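 Engorged adult female ticks, five per dose, received 1 μl of compound in DMSO injected into the abdomen and were kept in a climate chamber. Fertile egg deposition was checked after 7 days, with eggs of unclear fertility held until hatching at about 42 days. Efficacy 100% = all eggs infertile, 0% = all fertile.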

Nilaparvata lugens = Nilaparvata lugens spray test; details: Nilaparvata lugens, in Oryza sativa, 96 h
Method: Nilaparvata lugens—Spray Test
as §1
Rice plants (Oryza sativa) are sprayed with a preparation of the active ingredient of the desired concentration and the plants are infested with the brown planthopper (Nilaparvata lugens).
After 4 days mortality in % is determined. 100% means all planthoppers have been killed and 0% means none of the planthoppers have been killed.

[4] = test system: Aedes aegypti strain MONHEIM; experiment: Aedes aegypti test (AEDSAE surface treatment & contact assay); details: 24 hours after contact, read-out: efficacy (mortality); for mortality at 20 mg/m2: surface concentration 20 mg/m^2, 30 minutes exposure; for mortality at 4 mg/m2: surface concentration 4 mg/m^2, 30 minutes exposure
Method in brief: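 Compound dissolved in acetone (2 mg/ml) with 2000 ppm rapeseed oil methyl ester and dried onto a glazed tile. Adult mosquitoes held on the treated surface for 30 minutes exposure. Percent mortality scored 24 hours after contact.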

[5] = test system: Anopheles funestus strain FUMOZ-R; experiment: Anopheles funestus test (ANPHFU surface treatment & contact assay); details: 24 hours after contact, read-out: efficacy (mortality); for mortality at 4 mg/m2: surface concentration 4 mg/m^2, 30 minutes exposure; for mortality at 20 mg/m2: surface concentration 20 mg/m^2, 30 minutes exposure
Method: Anopheles funestus Test (ANPHFU Surface Treatment & Contact Assay)
(§2) Solvent: Aceton+2000 ppm rapeseed oil methyl ester (RME)
(§3) In order to produce a sufficient, active ingredient containing solution it is necessary to solve the test-compound in the solvent-mix (Acetone at 2 mg/ml/RME 2000 ppm). This solution is pipetted onto a glazed tile and after evaporation of the Acetone, adult mosquitoes of the species Anopheles funestus strain FUMOZ-R (Hunt et al., Med Vet Entomol. 2005 September; 19(3):271-5) are placed onto the dried surface. The exposure time is 30 minutes.
(§4) Mortality in percent (%) is determined 24 hours after contact to the treated surface. 100% mortality means that all test-insects are dead, whereas 0% means that not a single insect died.

Myzus persicae [6] = experiment: Myzus persicae spray test; details: in Brassica rapa, foliar, 120 h
Method: Myzus persicae—Spray Test
as §1
Chinese cabbage (Brassica pekinensis) leaf disks infected with all instars of the green peach aphid (Myzus persicae), are sprayed with a preparation of the active ingredient of the desired concentration.
After 5 days mortality in % is determined. 100% means all aphids have been killed and 0% means none of the aphids have been killed.

[7] = test system: Culex quinquefasciatus strain P00; experiment: Culex quinquefasciatus test (CULXFA surface treatment & contact assay); details: 24 hours after contact, read-out: efficacy (mortality); for mortality at 4 mg/m2: surface concentration 4 mg/m^2, 30 minutes exposure; for mortality at 20 mg/m2: surface concentration 20 mg/m^2, 30 minutes exposure
Method in brief: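 Compound dissolved in acetone (2 mg/ml) with 2000 ppm rapeseed oil methyl ester, applied to glazed tile and dried. Adult strain P00 mosquitoes exposed to the surface for 30 minutes. Percent mortality scored 24 hours after contact.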

[8] = test system: Musca domestica strain WHO-N; experiment: Musca domestica test (MUSCDO surface treatment & contact assay); details: 24 hours after contact, read-out: efficacy (mortality); for mortality at 20 mg/m2: surface concentration 20 mg/m^2, 30 minutes exposure; for mortality at 4 mg/m2: surface concentration 4 mg/m^2, 30 minutes exposure
Method: Musca domestica Test (MUSCDO Surface Treatment & Contact Assay)
as §2
as §3, with “flies” for “mosquitoes”, “Musca domestica” for “Anopheles funestus”, “WHO-N” for “FUMOZ-R (Hunt et al., Med Vet Entomol. 2005 September; 19(3):271-5)”
as §4

| Structure (SMILES) | mortality at 100 ppm (Ctenocephalides felis [1]) [%] | pest or weed control at 160 µg/disc, 160 µg/well (Diabrotica balteata) [%] | mortality at 4 ppm (Myzus persicae [2]) [%] | mortality at 20 ppm (Myzus persicae [2]) [%] | mortality at 500 g/ha (Phaedon cochleariae) [%] | mortality at 500 g/ha (Spodoptera frugiperda) [%] | mortality at 500 g/ha (Nezara viridula) [%] | pest or weed control at 5 µg/cm2, 5 µg/cm2 (Ctenocephalides felis [3]) [%] | pest or weed control at 0.02 mg (Boophilus microplus) [%] | mortality at 500 g/ha (Nilaparvata lugens) [%] | mortality at 20 mg/m2 [4] [%] | mortality at 4 mg/m2 [5] [%] | mortality at 20 mg/m2 [5] [%] | mortality at 500 g/ha (Myzus persicae [6]) [%] | mortality at 4 mg/m2 [4] [%] | mortality at 4 mg/m2 [7] [%] | mortality at 20 mg/m2 [7] [%] | mortality at 20 mg/m2 [8] [%] | mortality at 4 mg/m2 [8] [%] |
| --- | --- | --- | --- | --- | --- | --- | --- | --- | --- | --- | --- | --- | --- | --- | --- | --- | --- | --- | --- |
| CC(c1ncnn1-c1ncccn1)N(CC1CC1)C(=O)c1cc(Cl)cc(Cl)c1Cl (stereo not shown) [Example I-009] | 100 | 100 | 100 | 100 | 100 | 100 | – | – | – | – | – | – | – | – | – | – | – | – | – |
| CC(c1ncnn1-c1ncccn1)N(CC1CC1)C(=O)c1cc(-c2ccccc2)cc(C(F)(F)F)c1 (stereo not shown) [Example I-010] | 100 | – | – | – | 100 | – | – | – | – | – | – | – | – | – | – | – | – | – | – |
| CC(c1ncnn1-c1ncccn1)N(CC1CC1)C(=O)c1cc(-c2ccc(F)cc2)cc(C(F)(F)F)c1 (stereo not shown) [Example I-012] | 100 | 100 | – | 100 | 100 | 100 | – | – | – | – | – | – | – | – | – | – | – | – | – |
| CC(c1ncnn1-c1ncccn1)N(CC1CC1)C(=O)c1cccc(Cl)c1Cl (stereo not shown) [Example I-016] | – | 100 | – | – | 100 | – | 100 | – | – | – | – | – | – | – | – | – | – | – | – |
| CC(c1ncnn1-c1ncccn1)N(CC1CC1)C(=O)c1cc(Cl)c(Cl)s1 (stereo not shown) [Example I-024] | 100 | 100 | 100 | 100 | 100 | – | – | 100 | 100 | 100 | 90 to 100 | 85 to 100 | 85 to 100 | – | – | – | – | – | – |
| CC(c1ncnn1-c1ncccn1)N(CC1CC1)C(=O)c1c(Cl)c(C(F)(F)F)nn1C (stereo not shown) [Example I-026] | – | 100 | – | – | 100 | – | – | – | – | – | – | – | – | – | – | – | – | – | – |
| CC(c1ncnn1-c1ncccn1)N(CC1CC1)C(=O)c1cc(C2CC2)on1 (stereo not shown) [Example I-028] | 100 | 100 | – | – | 100 | – | – | – | – | – | – | – | – | – | – | – | – | – | – |
| C[C@@H](NC(=O)c1cc(Cl)cc(S(=O)(=O)c2ccc(F)cc2)c1)c1ncnn1-c1ncccn1 [Example I-043] | 100 | 100 | 100 | – | – | 100 | 100 | 90 | 100 | 100 | 90 to 100 | – | – | 90 | 80 to 100 | 80 to 100 | 80 to 100 | 80 to 100 | – |
| C[C@@H](NC(=O)c1cc(Cl)cc(S(=O)(=O)C(F)(F)F)c1)c1ncnn1-c1ccc(C#N)cn1 [Example I-067] | 100 | 100 | 100 | – | – | 100 | 100 | 90 | 80 | – | 90 to 100 | – | – | – | 80 to 100 | 80 to 100 | 80 to 100 | 80 to 100 | – |
| C[C@@H](NC(=O)c1cc(Cl)cc(S(=O)(=O)C(F)(F)F)c1)c1ncnn1-c1ccccn1 [Example I-068] | 100 | 100 | 90 | – | – | 100 | 100 | 90 | 100 | – | 90 to 100 | 85 to 100 | 85 to 100 | – | 80 to 100 | 80 to 100 | 80 to 100 | 80 to 100 | 80 to 100 |
| C[C@@H](NC(=O)c1cc(Cl)cc([S+](C)[O-])c1)c1ncnn1-c1ccc(C#N)cn1 (stereo partly shown) [Example I-070] | 100 | 100 | 100 | – | – | 100 | 100 | 100 | 100 | – | 90 to 100 | 85 to 100 | 85 to 100 | 100 | 80 to 100 | 80 to 100 | 80 to 100 | 80 to 100 | – |
| C[C@@H](NC(=O)c1cc(Cl)cc(S(=O)(=O)C(F)(F)F)c1)c1ncnn1-c1cnccn1 [Example I-074] | 100 | 100 | 100 | – | – | 100 | 100 | 90 | 100 | – | 90 to 100 | – | – | 90 | – | – | 80 to 100 | 80 to 100 | – |
| C[C@@H](NC(=O)c1cc(Cl)cc(S(=O)(=O)C(F)(F)F)c1)c1ncnn1-c1ncc(F)cc1F [Example I-078] | – | 100 | – | – | – | 100 | 100 | – | – | – | 90 to 100 | – | 85 to 100 | – | 80 to 100 | 80 to 100 | 80 to 100 | 80 to 100 | – |
| C[C@@H](NC(=O)c1cc(C(F)(F)F)n(C)n1)c1ncnn1-c1ncccn1 [Example I-100] | – | 100 | – | – | – | 100 | 100 | – | – | 100 | 90 to 100 | 85 to 100 | 85 to 100 | 90 | 80 to 100 | 80 to 100 | 80 to 100 | 80 to 100 | 80 to 100 |
